From patent US7435747B2, “Guanidine and amidine derivatives as factor Xa inhibitors” (Sanofi-Aventis Deutschland GmbH, priority 2000, dated 2008)
Like-named read-outs stand apart in the source and are kept apart here.

Target: T1, human factor Xa (Homo sapiens, UniProt P00742)
T1 construct: 25 μl human factor Xa (Enzyme Research Laboratories, Inc; South Bend, Ind.); purchased Enzyme Research Laboratories, Inc; South Bend, Ind
Assay: Factor Xa chromogenic assay (substrate S-2765)
Format: biochemical
Details: read-out: Ki(FXa), inhibition constant for inhibition of factor Xa
Description: Purified enzymes are used in chromogenic assays.
The IC50 was determined by combining in appropriate wells of a Costar half-area microtiter plate 25 μl human factor Xa (Enzyme Research Laboratories, Inc.; South Bend, Ind.) in TBS-PEG; 40 μl 10% (v/v) DMSO in TBS-PEG (uninhibited control) or various concentrations of the compound to be tested diluted in 10% (v/v) DMSO in TBS-PEG; and substrate S-2765 (N(α)-benzyloxycarbonyl-D-Arg-Gly-L-Arg-p-nitroanilide; Kabi Pharmacia, Inc.; Franklin, Ohio) in TBS-PEG.
The assay was performed by pre-incubating the compound of formula I plus enzyme for 10 min. Then the assay was initiated by adding substrate to obtain a final volume of 100 μl. The initial velocity of chromogenic substrate hydrolysis was measured by the change in absorbance at 405 nm using a Bio-tek Instruments kinetic plate reader (Ceres UV900HDi) at 25° C. during the linear portion of the time course (usually 1.5 min after addition of substrate). The enzyme concentration was 0.5 nM and substrate concentration was 140 μM.

[1] = Ki calculated from IC50 corrected for substrate competition, 25° C., 0.5 nM enzyme, 140 μM substrate S-2765

T1 sequence (P00742 235-488 limits assumed): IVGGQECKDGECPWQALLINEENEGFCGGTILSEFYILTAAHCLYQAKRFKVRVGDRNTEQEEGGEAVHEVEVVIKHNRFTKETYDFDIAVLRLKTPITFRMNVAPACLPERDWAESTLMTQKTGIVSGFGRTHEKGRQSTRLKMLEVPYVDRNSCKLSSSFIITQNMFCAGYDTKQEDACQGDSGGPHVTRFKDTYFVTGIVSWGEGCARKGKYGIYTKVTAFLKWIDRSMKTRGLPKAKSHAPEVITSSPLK
T1 sequence (P00742 41-179 partner limits assumed): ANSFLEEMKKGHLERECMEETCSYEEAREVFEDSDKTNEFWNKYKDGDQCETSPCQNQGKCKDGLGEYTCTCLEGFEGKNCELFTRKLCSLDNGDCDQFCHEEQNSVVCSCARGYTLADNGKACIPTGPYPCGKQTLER

`COC(=O)[C@@H](NC(=O)c1cc(O)cc(OCCc2ccc(Cl)cc2Cl)c1)C1CCN(C(=N)N)CC1` [Example 1, (S)-(1-Carbamimidoyl-piperidin-4-yl)-{3-[2-(2,4-dichloro-phenyl)-ethoxy]-5-hydroxy-benzoylamino}-acetic acid methyl ester] showed a Ki of 2120 nM.

`N=C(N)N1CCC(CNC(=O)c2cc(O)c(Br)c(OCCc3ccc(Cl)cc3Cl)c2)CC1` [Example 2, 4-Bromo-N-(1-carbamimidoyl-piperidin-4-ylmethyl)-3-[2-(2,4-dichloro-phenyl)-ethoxy]-5-hydroxy-benzamide] was tested, and the Ki was 13.7 nM.

In the case of `Cc1c(O)cc(C(=O)NCC2CCN(C(=N)N)CC2)cc1OCCc1ccc(Cl)cc1Cl` [Example 3, N-(1-Carbamimidoyl-piperidin-4-ylmethyl)-3-[2-(2,4-dichloro-phenyl)-ethoxy]-5-hydroxy-4-methyl-benzamide], the Ki is reported as 58.5 nM.

`N=C(N)N1CCC(CNC(=O)c2cc(O)cc(OCCc3ccc(Cl)cc3Cl)c2)CC1` [Example 4] showed a Ki of 464 nM.

`COC(=O)[C@H](CC1CCN(C(=N)N)CC1)NC(=O)c1cc(O)c(C)c(OCCCc2ccc(Cl)cc2Cl)c1` [Example 6] showed a Ki of 2280 nM.

Compound `CC(=N)N1CCC(CNC(=O)c2ccc(C)c(OCCc3ccc(Cl)cc3Cl)c2)CC1` [Example 12, 3-[2-(2,4-Dichloro-phenyl)-ethoxy]-N-[1-(10-imino-ethyl)-piperidin-4-ylmethyl]-4-methyl-benzamide; compound with trifluoro-acetic acid] has a Ki [1] of 140 nM.

`Cc1ccc(C(=O)NCC2CCN(C(=N)N)CC2)cc1OCCc1ccc(Cl)cc1Cl` [Example 13, N-(1-Carbamimidoyl-piperidin-4-ylmethyl)-3-[2-(2,4-dichloro-phenyl)-ethoxy]-4-methyl-benzamide; compound with trifluoro-acetic acid] was tested, and the Ki [1] was 173 nM.
